Test results published in patent US20130039928A1, “COMPOSITIONS AND METHODS FOR REVERSING CORTICOSTEROID RESISTANCE OR TREATING RESPIRATORY INFECTIONS” (priority 2010, published 2013).

How the values were obtained:
[1] = tested on: SNO proteins; settings: anti-SNO immunoblot, verified by DAN assay, vs vehicle
Description: S-nitrosylated proteins were detected by using the nitrate/nitrite fluorometric assay kit from Cayman chemicals (Ann Arbor, Mich.) according to the manufacturer's instructions. For HDAC2-specific nitrosylation detection, cells were lysed in buffer (50 mM Tris-HCl, pH 8.0, 150 mM NaCl, 1% Nonidet P-40, 0.5% deoxycholic acid, 0.1% SDS). These lysates were then subjected to immunoprecipitation by using an anti-HDAC2 antibody as described above. The immunoprecipitates were washed twice with lysis buffer and twice with PBS. The pellets were resuspended in 500 μL of PBS. After the addition of 100 μM HgCl2 and 100 μM DAN, the samples were incubated in the dark at 25° C. for 30 minutes, and 1 M NaOH was added. The generated fluorescent triazole from the reaction of the DAN with the NO released from the HDAC2 protein was measured by using an excitation wavelength of 375 nm and an emission wavelength of 450 nm. As a negative control, the antibody alone in lysis buffer was immunoprecipitated. The resulting background fluorescence intensity was subtracted for each experiment.

[2] = tested on: HDAC2
Description: Whether sulforaphane increase HDAC2 activity in lungs of cigarette smoke exposed mice was determined.
(§1) Mice (C57BL/6 strain, 8-10 weeks old) were used for the studies. Exposure to CS (1 month) was carried out as described previously (Malhotra, D., et al., Am J Respir Crit Care Med 178, 592-604 (2008)). Residential peritoneal macrophages (PMs) isolation was carried out as described previously (Singh, A., et al., PLoS Med 3, e420 (2006)). Alveolar macrophages from mouse were isolated from bronchoalveolar lavage (BAL) fluid (Crimi, E., et al., Free Radic Biol Med 40, 398-406 (2006)).
(§2) HDAC activity was measured using a fluorescent derivative of ε-acetyl-lysine from Enzo life sciences (Farmingdale, N.Y.) according to the manufacturer's recommendations. HDAC2 was immunoprecipitated for analysis of enzymatic activity.

[3] = tested on: Pseudomonas aeruginosa; experiment: Phagocytosis assay, FITC-labeled PA, alveolar macrophages; format: cell-based, human
Description: Human alveolar macrophages were purified from individual BAL samples by centrifugation and seeded onto 6-well tissue culture plates. After incubation for 2 h, non-adherent cells were removed and the adherent cells were incubated with R, S-sulforaphane (5 μM; LKT Laboratories, Inc., St. Paul, Minn.) and or DMSO in RPMI 1640 culture medium with 10% FBS and 1% penicillin-streptomycin (Invitrogen, Carlsbad, Calif.). After 16-20 h, adherent cells were scraped, suspended in RPMI 1640 culture media and plated onto 96-well tissue culture plates for bacterial phagocytosis and clearance assays. […] For MARCO antibody-depletion, alveolar macrophages were incubated with human anti-MARCO antibody (1 μg/ml; (Hycult, Uden, The Netherlands) for 4 hours prior to bacterial challenge.
Sputum isolates of nontypeable H. influenzae and P. aeruginosa obtained from patients with COPD at the Department of Veterans Affairs, Western New York Healthcare System were used (S. Sethi, N. Evans, B. J. Grant, T. F. Murphy, N Engl J Med 347, 465 (Aug. 15, 2002); C. S. Berenson, M. A. Garlipp, L. J. Grove, J. Maloney, S. Sethi, J Infect Dis 194, 1375 (Nov. 15, 2006); T. F. Murphy et al., Am J Respir Crit Care Med 177, 853 (Apr. 15, 2008); T. F. Murphy, A. L. Brauer, A. T. Schiffmacher, S. Sethi, Am J Respir Crit Care Med 170, 266 (Aug. 1, 2004)). For bacterial growth, H. influenzae was cultured on chocolate agar or grown in brain heart infusion broth supplemented with 20 μg/mlNAD and 10 μg/ml hemin at 35° C. in 5% CO2. P. aeruginosa was cultured on LB agar plates or in LB broth at 37° C. For FITC-labeling of bacteria, heat inactivated PA and NTHI (10^9 CFU/ml) were resuspended in 1 ml of labeling buffer (0.1 M NaHCO3, pH 9.2) and incubated with fluorescein isothiocyanate (FITC) (Sigma) under constant stiffing in the dark at room temperature for 1 h. Finally, bacteria were washed three times with PBS and dialyzed overnight against PBS. FITC-labeled bacteria were resuspended with PBS at a concentration of 10^9/ml.
Bacterial phagocytosis was quantified using a flow cytometry analysis.

[4] = tested on: HDAC2; settings: CSC-exposed PMs
Description: as §1
(§3) For inducing corticosteroid resistance, PMs were exposed to cigarette smoke condensate (CSC, 100 μg/ml; Murty Pharmaceuticals, Lexington, Ky.) for 16 h. Exposure to S-nitrosoglutathione (GSNO, 10 μM) was limited to 4 h. […] For assessing corticosteroid responsiveness, macrophages were incubated with dexamethasone (1 μM, Sigma) for 1 h followed by LPS (100 ng/ml, Sigma) for additional 4 h.

[5] = tested on: HDAC2; format: cell-based, human
Description: as §3, §2
Macrophage cell or lung tissue extracts were prepared by using 100 μL of immunoprecipitation buffer (50 mM Tris-HCl, pH 8.0, 150 mM NaCl, 1.0% Triton X-100, 0.5% NP-40, 0.1% SDS, 0.5% deoxycholate, and complete protease inhibitor cocktail) from Roche (Morristown, N.J.). The lysis mixture was incubated on ice for 15 minutes and microcentrifuged for 10 minutes at 4° C. Extracts were precleared with 20 μL protein A/G sepharose beads (a 50:50 mix) from Thermo scientific (Rockford, Ill.) and 2 μg of normal IgG. After microcentrifugation, 20 μL of protein A/G sepharose conjugated with 5 μg of antibody was used to precipitate HDAC2 (Santa Cruz Biotechnology, Santa Cruz, Calif.) overnight at 4° C. with rotation. The immune complexes were pelleted with gentle centrifugation, washed twice with 1 mL of immunoprecipitation buffer, and divided equally for the final wash for the activity assay and immunoblotting. For the HDAC assay, immunoprecipitates were resuspended in the activity assay buffer (50 mM TrisHCl, pH 8.0; 10% glycerol; 1 mM dithiothreitol; 0.1 mM EDTA, complete protease inhibitor cocktail). For HDAC2-specific western blotting, immune complexes were washed three times with the immunoprecipitation buffer and finally resuspended in Laemmli buffer for the SDS-PAGE.

C[S+]([O-])CCCCN=C=S (stereo not shown) [sulforaphane]
SNO proteins in lysates [1]: significant reduction in SNO proteins | levels of SNO-HDAC2 in lungs ([2]; CS-exposed mice): reduced the levels of SNO-HDAC2 | GSH levels in lungs ([2]; cigarette smoke-exposed mice): increased GSH levels | HDAC2 enzymatic activity in lungs ([2]; cigarette smoke-exposed mice): significant increase | HDAC2 protein in lungs ([2]; cigarette smoke-exposed mice): significant increase | total HDAC enzymatic activity in lungs ([2]; cigarette smoke-exposed mice): significant increase | phagocytosis of FITC-labeled Pseudomonas aeruginosa ([3]; COPD alveolar macrophages, compared to vehicle): significantly enhanced phagocytosis | bacterial phagocytosis ([3]; Nrf2-siRNA transfected macrophages): failed to do so | bacterial phagocytosis ([3]; alveolar macrophages transfected with control ssRNA): enhanced bacterial phagocytosis | levels of SNO-HDAC2 [4]: significant reduction in the levels of SNO-HDAC2 | enzymatic activity of HDAC2 ([5]; COPD alveolar macrophages, P<0.01 versus vehicle): approximately 2 fold | HDAC2 activity ([5]; in the presence of BSO): failed to increase HDAC2 activity | HDAC2 enzymatic activity ([5]; treatment after GSNO exposure of alveolar macrophages): significantly increased HDAC2 activity
